Laboratory results from the NIST ThermoML archive (doi:10.1016/j.jct.2015.09.002).
± gives the expanded uncertainty stated by the source.

How the values were obtained:
[1] = 93.2 kPa, Liquid, Vibrating tube method
[2] = xn = mol fraction of the nth substance listed; settings: 93.2 kPa, Liquid, Vibrating tube method, x1 = 1

| SMILES | mass density ([1]; 293.15 K) [kg/m3] | mass density ([1]; 298.15 K) [kg/m3] | mass density ([1]; 303.15 K) [kg/m3] | mass density ([1]; 308.15 K) [kg/m3] | mass density ([2]; 293.15 K) [kg/m3] | mass density ([2]; 298.15 K) [kg/m3] | mass density ([2]; 303.15 K) [kg/m3] | mass density ([2]; 308.15 K) [kg/m3] |
| --- | --- | --- | --- | --- | --- | --- | --- | --- |
| CCCCN [1-butanamine] | 737.12 ± 2 | 732.33 ± 2 | 727.51 ± 2 | 722.66 ± 2 |  |  |  |  |
| CC(C)(C)N [2-methyl-2-propanamine] | 692.06 ± 2 | 686.65 ± 2 | 681.18 ± 2 | 675.66 ± 2 |  |  |  |  |
| CC#N [acetonitrile] | 782.01 ± 2 | 776.61 ± 2 | 771.2 ± 2 | 765.75 ± 2 |  |  |  |  |
| CCCCNCCCC [dibutylamine] | 759.7 ± 2 | 755.61 ± 2 | 751.5 ± 2 | 747.38 ± 2 |  |  |  |  |
| CCCNCCC [dipropylamine] | 738.18 ± 2 | 733.64 ± 2 | 729.07 ± 2 | 724.48 ± 2 |  |  |  |  |
| CCCN [propan-1-amine] | 716.48 ± 2 | 711.21 ± 2 | 705.88 ± 2 | 700.62 ± 2 |  |  |  |  |
| CCN(CC)CC [triethylamine] | 727.7 ± 2 | 723.02 ± 2 | 718.36 ± 2 | 713.65 ± 2 |  |  |  |  |

Other lines, results leading:

| mass density ([1]; 293.15 K) [kg/m3] | mass density ([1]; 298.15 K) [kg/m3] | mass density ([1]; 303.15 K) [kg/m3] | mass density ([1]; 308.15 K) [kg/m3] | mass density ([2]; 293.15 K) [kg/m3] | mass density ([2]; 298.15 K) [kg/m3] | mass density ([2]; 303.15 K) [kg/m3] | mass density ([2]; 308.15 K) [kg/m3] | SMILES |
| --- | --- | --- | --- | --- | --- | --- | --- | --- |
|  |  |  |  | 782.01 ± 2 | 776.61 ± 2 | 771.2 ± 2 | 765.75 ± 2 | CC#N [acetonitrile] + CC(C)(C)N |
|  |  |  |  | 782.01 ± 2 | 776.61 ± 2 | 771.2 ± 2 | 765.75 ± 2 | CC#N [acetonitrile] + CCCCN |
|  |  |  |  | 782.01 ± 2 | 776.61 ± 2 | 771.2 ± 2 | 765.75 ± 2 | CC#N [acetonitrile] + CCCCNCCCC |
|  |  |  |  | 782.01 ± 2 | 776.61 ± 2 | 771.2 ± 2 | 765.75 ± 2 | CC#N [acetonitrile] + CCCN |
|  |  |  |  | 782.01 ± 2 | 776.61 ± 2 | 771.2 ± 2 | 765.75 ± 2 | CC#N [acetonitrile] + CCCNCCC |
|  |  |  |  | 782.01 ± 2 | 776.61 ± 2 | 771.2 ± 2 | 765.75 ± 2 | CC#N [acetonitrile] + CCN(CC)CC |
